Test results reported in patent US9278915B2, “Agonists of GPR40” (CONNEXIOS LIFE SCIENCES PVT LTD, priority 2010, dated 2016).
pEC50: −log10 of the molar value.

The compounds below were run against T1, hGPR40 (Homo sapiens, UniProt O14842) (assay: Calcium flux assay to detect GPR40 activation). Settings: CHO-K cells stably expressing hGPR40; Fluo-4 NW; read for 4 min at 5 s intervals.
T1 construct: expressed in transfected cells
T1 sequence (O14842 whole entry): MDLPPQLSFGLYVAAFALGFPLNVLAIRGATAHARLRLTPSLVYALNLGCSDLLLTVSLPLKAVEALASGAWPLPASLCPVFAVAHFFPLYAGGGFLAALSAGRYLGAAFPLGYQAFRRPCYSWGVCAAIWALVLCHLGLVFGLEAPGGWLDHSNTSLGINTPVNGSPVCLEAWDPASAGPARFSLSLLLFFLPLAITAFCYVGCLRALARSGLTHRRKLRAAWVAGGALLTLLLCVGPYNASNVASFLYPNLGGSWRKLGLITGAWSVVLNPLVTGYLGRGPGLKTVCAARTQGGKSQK
Type: cell-based
How it was run: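 CHO-K cells stably expressing hGPR40 were cultured 24 h at 37 °C and loaded with Fluo-4 NW for 30 min at 37 °C plus 30 min at RT. Compounds diluted in HEPES buffer were added, and calcium fluorescence was recorded for 4 min at 5 s intervals.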
For `CO/N=C(\COc1ccc(COc2ccc(CCC(=O)O)cc2OC)cc1)c1ccccc1` [Compound 94, 3-{3-Methoxy-4-[(4-{[(2Z)-2-(methoxyimino)-2-phenylethyl]oxy}benzyl)oxy]phenyl}propanoic acid], the pEC50 was under 7.00.
In the case of `CO/N=C(\COc1ccc(COc2ccc(/C=C/C(=O)O)c(OC)c2)cc1)c1ccccc1` [Compound 95, (2E,2Z)-3-{2-Methoxy-4-[(4-{[(2Z)-2-(methoxyimino)-2-phenylethyl]oxy}benzyl)oxy]phenyl}prop-2-enoic acid], the pEC50 was under 7.00.
For `CO/N=C(\COc1ccc(COc2ccc(CCC(=O)O)c(O)c2)cc1)c1ccccc1` [Compound 96, 3-{2-Hydroxy-4-[(4-{[(2Z)-2-(methoxyimino)-2-phenylethyl]oxy}benzyl)oxy]phenyl}propanoic acid], the pEC50 was under 7.00.
Work on `CO/N=C(\COc1ccc(COc2ccc(/C=C/C(=O)O)c(-c3cc(C)on3)c2)cc1)c1ccccc1` [Compound 97, (2E,2Z)-3-{4-[(4-{[(2Z)-2-(Methoxyimino)-2-phenylethyl]oxy}benzyl)oxy]-2-(5-methyl-1,2-oxazol-3-yl)phenyl}prop-2-enoic acid] yielded a pEC50 of under 7.00.
In the case of `CO/N=C(\COc1ccc(COc2ccc(C(C#N)CC(=O)O)cc2)cc1)C1=Cc2ccccc2C1` (centres unmarked) [Compound 101, 3-Cyano-3-{4-[(4-{[(2Z)-2-(1H-inden-2-yl)-2-(methoxyimino)ethyl]oxy}benzyl)oxy]phenyl}propanoic acid], the pEC50 was 7.00 to 8.00.
`CO/N=C(\COc1ccc(COc2ccc(C(C#N)CC(=O)O)cc2)cc1)c1ccc2c(c1)CCO2` (centres unmarked) [Compound 102, 3-Cyano-3-{4-[(4-{[(2Z)-2-(2,3-dihydro-1-benzofuran-5-yl)-2-(methoxyimino)ethyl]oxy}benzyl)oxy]phenyl}propanoic acid] was tested, and the pEC50 was 7.00 to 8.00.
In the case of `CO/N=C(\COc1ccc(COc2ccc(C(C#N)CC(=O)O)cc2)cc1)c1ccc2c(c1)CCC2` (centres unmarked) [Compound 103, 3-Cyano-3-{4-[(4-{[(2Z)-2-(2,3-dihydro-1H-inden-5-yl)-2-(methoxyimino)ethyl]oxy}benzyl)oxy]phenyl}propanoic acid], the pEC50 was 7.00 to 8.00.
With `CO/N=C(/COc1ccc(COc2ccc(C(C#N)CC(=O)O)cc2)cc1)C1CC1` (centres unmarked) [Compound 104, 3-Cyano-3-{4-[(4-{[(2E)-2-cyclopropyl-2-(methoxyimino)ethyl]oxy}benzyl)oxy]phenyl}propanoic acid] the pEC50 was under 7.00.
With `CO/N=C(\COc1ccc(COc2ccc(C(C#N)CC(=O)O)cc2)cc1)C1CC1` (centres unmarked) [Compound 105, 3-Cyano-3-{4-[(4-{[(2Z)-2-cyclopropyl-2-(methoxyimino)ethyl]oxy}benzyl)oxy]phenyl}propanoic acid] the pEC50 was under 7.00.
Work on `CO/N=C(\COc1ccc(COc2ccc(CCC(=O)O)cc2)cc1)c1sc2c(c1C)C(C)(C)CCC2(C)C` [Compound 106, 3-{4-[(4-{[(2E)-2-(Methoxyimino)-2-(3,4,4,7,7-pentamethyl-4,5,6,7-tetrahydro-1-benzothiophen-2-yl)ethyl]oxy}benzyl)oxy]phenyl}propanoic acid] yielded a pEC50 of under 7.00.
`N#CC(CC(=O)O)c1ccc(OCc2ccc(OC/C(=N\Oc3ccccc3)c3ccccc3)cc2)cc1` (centres unmarked) [Compound 107, 3-Cyano-3-{4-[(4-{[(2E,2Z)-2-(phenoxyimino)-2-phenylethyl]oxy}benzyl)oxy]phenyl}propanoic acid] showed a pEC50 of 7.00 to 8.00.
Work on `O=C(O)CCc1ccc(OCc2ccc(OC/C(=N\OCc3ccccc3)c3ccccc3)cc2)cc1` [Compound 108, 3-(4-{[4-({(2E,2Z)-2-[(Benzyloxy)imino]-2-phenylethyl}oxy)benzyl]oxy}phenyl) propanoic acid] yielded a pEC50 of 7.00 to 8.00.
In the case of `N#CC(CC(=O)O)c1ccc(OCc2ccc(OC/C(=N\O)c3ccccc3)cc2)cc1` (centres unmarked) [Compound 109, 3-Cyano-3-{4-[(4-{[(2Z)-2-(hydroxyimino)-2-phenylethyl]oxy}benzyl)oxy]phenyl}propanoic acid], the pEC50 was under 7.00.
`C=CCO/N=C(\COc1ccc(COc2ccc(CCC(=O)O)cc2)cc1)c1ccccc1` [Compound 110, 3-(4-{[4-({(2E,2Z)-2-Phenyl-2-[(prop-2-en-1-yloxy)imino]ethyl}oxy)benzyl]oxy}phenyl)propanoic acid] showed a pEC50 of over 8.00.
